In patent US9120779B2, “Inhibitors of HCV NS5A” (PRESIDIO PHARMACEUTICALS, INC., priority 2008, dated 2015):

Tested on: HCV genotype 1b replicon in Huh 7 cells
Test: HCV replicon assay (luciferase readout, 1b_Huh-Luc/Neo-ET cell line)
Format: cell-based
Details: Hepatitis C virus, Huh-7, 72 h, read-out: Inhibition of HCV genotype 1b, Table 5, 72 h incubation
Summary of the method: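 Inhibition expressed as percent of untreated control luciferase signal and fitted to a Hill-slope equation for EC50, with repeat determinations. Compounds were added in triplicate to Huh 7 cells stably expressing the genotype 1b luciferase replicon, with 72 h exposure.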

Structure (SMILES) | EC50
COC(=O)N[C@H](C(=O)N1CCC[C@H]1c1ncc(C23CCC(c4ccc(-c5cnc([C@@H]6CCCN6C(=O)[C@@H](c6ccccc6)N(C)C)[nH]5)cc4)(CC2)CC3)[nH]1)C(C)C [compound 2067] | < 1 nM
COC(=O)N[C@H](C(=O)N1CCC[C@H]1c1ncc(C23CCC(c4ccc(-c5cnc([C@@H]6CCCN6C(=O)[C@H](NC6CCOCC6)c6ccccc6)[nH]5)cc4)(CC2)CC3)[nH]1)C(C)C [compound 2068] | < 1 nM
COC(=O)N[C@H](C(=O)N1CCC[C@H]1c1ncc(C23CCC(c4ccc(-c5cnc([C@@H]6CCCN6C(=O)[C@@H](c6ccccc6)N6CCCCC6)[nH]5)cc4)(CC2)CC3)[nH]1)C(C)C [compound 2069] | < 1 nM
COC(=O)N[C@H](C(=O)N1CCC[C@H]1c1ncc(C23CCC(c4ccc(-c5cnc([C@@H]6CCCN6C(=O)[C@@H](C(C)C)N(C)C)[nH]5)cc4)(CC2)CC3)[nH]1)C(C)C [compound 2070] | < 1 nM
COC(=O)N[C@H](C(=O)N1CCC[C@H]1c1ncc(C23CCC(c4ccc(-c5cnc([C@@H]6CCCN6C(=O)[C@H](C(C)C)N6CCC(O)CC6)[nH]5)cc4)(CC2)CC3)[nH]1)C(C)C [compound 2071] | < 1 nM
COC(=O)N[C@@H](CC(C)C)C(=O)N1CCC[C@H]1c1ncc(-c2ccc(C34CCC(c5cnc([C@@H]6CCCN6C(=O)[C@@H](NC(=O)OC)C(C)C)[nH]5)(CC3)CC4)cc2)[nH]1 [compound 2072] | < 1 nM
CC[C@H](C)[C@H](NC(=O)OC)C(=O)N1CCC[C@H]1c1ncc(-c2ccc(C34CCC(c5cnc([C@@H]6CCCN6C(=O)[C@@H](NC(=O)OC)C(C)C)[nH]5)(CC3)CC4)cc2)[nH]1 [compound 2073] | < 1 nM
COC(=O)N[C@H](C(=O)N[C@@H](C)c1ncc(-c2ccc(C34CCC(c5cnc([C@@H]6CCCN6C(=O)[C@@H](NC(=O)OC)C(C)C)[nH]5)(CC3)CC4)cc2)[nH]1)C(C)C [compound 2074] | < 1 nM
COC(=O)N[C@H](C(=O)N1CCC[C@H]1c1ncc(C23CCC(c4ccc(-c5cnc([C@@H]6CCCN6C(=O)[C@H](NC(=O)N6CCCCC6)C(C)C)[nH]5)cc4)(CC2)CC3)[nH]1)C(C)C [compound 2075] | < 1 nM
COC(=O)N[C@H](C(=O)N1CCC[C@H]1c1ncc(C23CCC(c4ccc(-c5cnc([C@@H]6CCCN6C(=O)[C@H](NC(=O)N6CCC(O)CC6)C(C)C)[nH]5)cc4)(CC2)CC3)[nH]1)C(C)C [compound 2076] | < 1 nM
COC(=O)N[C@H](C(=O)N1CCC[C@H]1c1ncc(C23CCC(c4ccc(-c5cnc([C@@H]6CCCN6C(=O)[C@H](C(C)C)N(C)C)[nH]5)cc4)(CC2)CC3)[nH]1)C(C)C [compound 2077] | < 1 nM
COC(=O)N[C@H](C(=O)N[C@@H](C)c1ncc(-c2ccc(C34CCC(c5cnc([C@@H]6CCCN6C(=O)[C@H](C(C)C)N(C)C)[nH]5)(CC3)CC4)cc2)[nH]1)C(C)C [compound 2078] | < 1 nM
COC(=O)N[C@H](C(=O)N1CCC[C@H]1c1ncc(C23CCC(c4ccc(-c5cnc([C@@H]6CCCN6C(=O)[C@@H](NC(=O)OC6CCOCC6)C(C)C)[nH]5)cc4)(CC2)CC3)[nH]1)C(C)C [compound 2079] | 1 to 9.9 nM
COC(=O)N[C@H](C(=O)N1CCC[C@H]1c1ncc(C23CCC(c4ccc(-c5cnc([C@@H]6CCCN6C(=O)[C@H](NC(=O)OC6CCOCC6)C(C)C)[nH]5)cc4)(CC2)CC3)[nH]1)C(C)C [compound 2080] | < 1 nM
COC(=O)N[C@@H](C)C(=O)N1CCC[C@H]1c1ncc(-c2ccc(C34CCC(c5cnc([C@@H]6CCCN6C(=O)[C@@H](NC(=O)OC)C(C)C)[nH]5)(CC3)CC4)cc2)[nH]1 [compound 2081] | < 1 nM
COC(=O)N[C@H](C(=O)N1CCC[C@H]1c1ncc(C23CCC(c4ccc(-c5cnc([C@@H]6CCCN6C(=O)[C@@H](C)NC(=O)OC)[nH]5)cc4)(CC2)CC3)[nH]1)C(C)C [compound 2082] | < 1 nM
COC(=O)N[C@H](C(=O)N[C@@H](C)c1ncc(-c2ccc(C34CCC(c5cnc([C@@H]6CCCN6C(=O)[C@H](NC(=O)OC)c6ccccc6)[nH]5)(CC3)CC4)cc2)[nH]1)C(C)C [compound 2083] | < 1 nM
COC(=O)N[C@H](C(=O)N1CCC[C@H]1c1ncc(-c2ccc(C34CCC(c5cnc([C@@H]6CCCN6C(=O)[C@H](NC(=O)OC6CCOCC6)C(C)C)[nH]5)(CC3)CC4)cc2)[nH]1)C(C)C [compound 2084] | < 1 nM
COC(=O)N[C@H](C(=O)N[C@@H](C)c1ncc(-c2ccc(C34CCC(c5cnc([C@@H]6CCCN6C(=O)[C@@H](c6ccccc6)N(C)C)[nH]5)(CC3)CC4)cc2)[nH]1)C(C)C [compound 2085] | < 1 nM
COC(=O)N[C@@H](C(=O)N1CCOC[C@H]1c1ncc(-c2ccc(C34CCC(c5cnc([C@@H]6CCCN6C(=O)[C@H](NC(=O)OC)c6ccccc6)[nH]5)(CC3)CC4)cc2)[nH]1)c1ccccc1 [compound 2086] | < 1 nM
COC(=O)N[C@H](C(=O)N1CCOC[C@H]1c1ncc(-c2ccc(C34CCC(c5cnc([C@@H]6CCCN6C(=O)[C@@H](NC(=O)OC)C(C)C)[nH]5)(CC3)CC4)cc2)[nH]1)C(C)C [compound 2087] | < 1 nM

Structure (SMILES) | EC50
COC(=O)N[C@H](C(=O)N1CCC[C@H]1c1ncc(-c2ccc(C34CCC(c5cnc([C@@H]6CCCN6C(=O)[C@H](NC(=O)N6CC[C@@H](O)C6)c6ccccc6)[nH]5)(CC3)CC4)cc2)[nH]1)C(C)C [compound 2088] | < 1 nM
CNC(=O)N[C@@H](C(=O)N1CCC[C@H]1c1ncc(C23CCC(c4ccc(-c5cnc([C@@H]6CCCN6C(=O)[C@@H](NC(=O)OC)C(C)C)[nH]5)cc4)(CC2)CC3)[nH]1)c1ccccc1 [compound 2089] | < 1 nM
CCNC(=O)N[C@@H](C(=O)N1CCC[C@H]1c1ncc(C23CCC(c4ccc(-c5cnc([C@@H]6CCCN6C(=O)[C@@H](NC(=O)OC)C(C)C)[nH]5)cc4)(CC2)CC3)[nH]1)c1ccccc1 [compound 2090] | < 1 nM
COC(=O)N[C@@H](CC(C)C)C(=O)N1CCC[C@H]1c1ncc(-c2ccc(C34CCC(c5cnc([C@@H]6CCCN6C(=O)[C@H](CC(C)C)NC(=O)OC)[nH]5)(CC3)CC4)cc2)[nH]1 [compound 2091] | < 1 nM
CCC(C)[C@H](NC(=O)OC)C(=O)N1CCC[C@H]1c1ncc(-c2ccc(C34CCC(c5cnc([C@@H]6CCCN6C(=O)[C@@H](NC(=O)OC)C(C)CC)[nH]5)(CC3)CC4)cc2)[nH]1 (some centres unmarked) [compound 2092] | < 1 nM
COC(=O)N[C@H](C(=O)N1CCC[C@H]1c1ncc(-c2ccc(C34CCC(c5cnc([C@@H]6CCCN6C(=O)[C@@H](NC(=O)OC)C(C)(C)C)[nH]5)(CC3)CC4)cc2)[nH]1)C(C)(C)C [compound 2093] | < 1 nM
COC(=O)N[C@H](C(=O)N1CCC[C@H]1c1ncc(-c2ccc(C34CCC(c5cnc([C@@H]6CCCN6C(=O)[C@@H](NC(=O)OC)C6CCCC6)[nH]5)(CC3)CC4)cc2)[nH]1)C1CCCC1 [compound 2094] | < 1 nM
CNC(=O)N[C@H](C(=O)N1CCC[C@H]1c1ncc(-c2ccc(C34CCC(c5cnc([C@@H]6CCCN6C(=O)[C@@H](NC(=O)OC)C(C)C)[nH]5)(CC3)CC4)cc2)[nH]1)C(C)C [compound 2095] | < 1 nM
CCNC(=O)N[C@H](C(=O)N1CCC[C@H]1c1ncc(-c2ccc(C34CCC(c5cnc([C@@H]6CCCN6C(=O)[C@@H](NC(=O)OC)C(C)C)[nH]5)(CC3)CC4)cc2)[nH]1)C(C)C [compound 2096] | < 1 nM
COC(=O)N[C@H](C(=O)N[C@@H](C)c1ncc(C23CCC(c4ccc(-c5cnc([C@@H]6CCCN6C(=O)[C@@H](NC(=O)OC)C(C)C)[nH]5)cc4)(CC2)CC3)[nH]1)C(C)C [compound 2097] | < 1 nM
COC(=O)N[C@@H](C(=O)N[C@@H](C)c1ncc(C23CCC(c4ccc(-c5cnc([C@@H]6CCCN6C(=O)[C@H](NC(=O)OC)c6ccccc6)[nH]5)cc4)(CC2)CC3)[nH]1)c1ccccc1 [compound 2098] | < 1 nM
CNC(=O)N[C@H](C(=O)N1CCC[C@H]1c1ncc(C23CCC(c4ccc(-c5cnc([C@@H]6CCCN6C(=O)[C@@H](NC(=O)OC)C(C)C)[nH]5)cc4)(CC2)CC3)[nH]1)C(C)C [compound 2099] | < 1 nM
CCNC(=O)N[C@H](C(=O)N1CCC[C@H]1c1ncc(C23CCC(c4ccc(-c5cnc([C@@H]6CCCN6C(=O)[C@@H](NC(=O)OC)C(C)C)[nH]5)cc4)(CC2)CC3)[nH]1)C(C)C [compound 2100] | < 1 nM
COC(=O)N[C@H](C(=O)N1CCC[C@H]1c1ncc(C23CCC(c4ccc(-c5cnc([C@@H]6CCCN6C(=O)[C@H](NC(=O)N6CCC(O)CC6)c6ccccc6)[nH]5)cc4)(CC2)CC3)[nH]1)C(C)C [compound 2101] | < 1 nM
CNC(=O)N[C@@H](C(=O)N1CCC[C@H]1c1ncc(-c2ccc(C34CCC(c5cnc([C@@H]6CCCN6C(=O)[C@@H](NC(=O)OC)C(C)C)[nH]5)(CC3)CC4)cc2)[nH]1)c1ccccc1 [compound 2102] | < 1 nM
CCNC(=O)N[C@@H](C(=O)N1CCC[C@H]1c1ncc(-c2ccc(C34CCC(c5cnc([C@@H]6CCCN6C(=O)[C@@H](NC(=O)OC)C(C)C)[nH]5)(CC3)CC4)cc2)[nH]1)c1ccccc1 [compound 2103] | < 1 nM
COC(=O)N[C@H](C(=O)N1CCC[C@H]1c1ncc(-c2ccc(C34CCC(c5cnc([C@H](C)NC(=O)[C@H](NC(=O)OC)c6ccccc6)[nH]5)(CC3)CC4)cc2)[nH]1)C(C)C [compound 2104] | < 1 nM
COC(=O)NC(C(=O)N1CCC[C@H]1c1ncc(-c2ccc(C34CCC(c5cnc([C@H](C)NC(=O)[C@@H](NC(=O)OC)C(C)C)[nH]5)(CC3)CC4)cc2)[nH]1)c1ccccc1 (some centres unmarked) [compound 2105] | < 1 nM
COC(=O)N[C@H](C(=O)N1CCC[C@H]1c1ncc(-c2ccc(C34CCC(c5cnc([C@@H]6CCCN6C(=O)[C@@H](NC(=O)OC)C6CCOCC6)[nH]5)(CC3)CC4)cc2)[nH]1)C(C)C [compound 2106] | < 1 nM
COC(=O)N[C@H](C(=O)N1CCC[C@H]1c1ncc(-c2ccc(C34CCC(c5cnc([C@@H]6CCCN6C(=O)[C@@H](NC(=O)OC6CCOCC6)c6ccccc6)[nH]5)(CC3)CC4)cc2)[nH]1)C(C)C [compound 2107] | < 1 nM
